Tests used:
[1] = system: retinas from P0 mice; assay: P0 mouse retinal explants: Western blot, qPCR, immunohistochemistry; assay type: cell-based; settings: 1 μM
Protocol: Loss-of-function mutations in Nr2e3 cause an increase in the number of S-opsin+ photoreceptors and a decrease in rhodopsin expression. To determine whether PR1 has similar effects on developing photoreceptors, retinas from P0 mice were explanted in media containing DMSO or 1 μM PR1 and assessed the level of rod genes with Western blots and qPCR after two to five days in vitro (FIG. 7A). […] Expression of additional genes was tested using qPCR. After 2 days in culture PR1 decreased the expression of the rod specific genes Nrl, Nr2e3, Rho, and Gnat1 compared to DMSO (FIG. 7D).
Intact retinas without RPE from mice of various strains and ages as indicated were explanted on 0.4 μm pore tissue culture inserts (Millipore) as previously described (Ueki, Y., et al., P53 is required for the developmental restriction in Muller glial proliferation in mouse retina. Glia, 2012. 60(10): p. 1579-89; Ueki, Y., et al., A transient wave of BMP signaling in the retina is necessary for Muller glial differentiation. Development, 2015. 142(3): p. 533-43. Full media (DMEM/F12 (1:1) containing 1% dialyzed FBS, 1% Pen Strep, 0.3% D+ glucose, 2% B27, and 1% N2) changes were performed every other day and small molecules were used at 0.1 μM to 10 μM. Where indicated, EdU (Invitrogen) was included in the media at 5 μg/mL and visualized by staining with the Click-iT EdU Alexa Fluor kit (Thermo Fisher Scientific). For human retinal explant cultures, tissue from 113 day post-conception fetuses was obtained from the University of Washington Birth Defects Laboratory and explanted on 0.4 μm pore tissue culture inserts (Millipore) in media (Neurobasal A with 1% FBS, 1% Pen Strep, 1% N2, 1% B27) containing 10 μM Photoregulin1 or an equal volume of DMSO.
(§1) RNA was isolated using TRIzol (Invitrogen) and cDNA was synthesized using the iScript cDNA synthesis kit (Bio-Rad) following an intervening DNase treatment with RQ1 RNase-free DNase (Promega). SSO Fast (Bio-Rad) was used for quantitative real-time PCR. For analysis, values were normalized to Gapdh and ΔΔCt between DMSO and compound-treated samples was expressed as percent of DMSO treated controls (100*2^ΔΔCt). Two-way Student's t-tests were performed on ΔCt values.
Retinal explants or eyecups were fixed in 4% PFA in 1×PBS for 20 minutes at room temperature and then cryoprotected in 30% sucrose in 1×PBS overnight at 4° C. Samples were embedded in OCT (Sakura Finetek), frozen on dry ice, and then sectioned at 14-16 μm on a cryostat (Leica). Slides were blocked with a solution containing 10% Normal Horse Serum (Vector Labs) and 0.5% Triton X-100 (Sigma-Aldrich) in 1×PBS for 1 hour at room temperature and then stained overnight at 4° C. with primary antibodies diluted in blocking solution. Slides were washed three times with 1×PBS the following day and then incubated in secondary antibodies (Life Technologies) diluted in blocking solution for 2 hours at room temperature, stained with DAPI (Sigma-Aldrich), washed, and coverslipped using Fluoromount-G (SouthernBiotech). An Olympus FluoView FV1000 was used for confocal microscopy.
(§2) Retinal explants or retinas were homogenized in lysis buffer (50 mM Tris, 100 mM NaCl, 5 mM EDTA, 0.1% SDS, 1% Triton X-100, 2.5% glycerol, and 1× protease inhibitor cocktail) and equal amounts of protein samples were loaded and run in a 4-20% SDS gel (Bio-Rad). Protein was transferred to a PVDF membrane (Thermo Fisher Scientific), blocked (5% BSA and 0.1% Tween 20 in 1×PBS) and stained with primary antibodies (Supplemental Table S2) and then HRP-conjugated secondaries (Bio-Rad) diluted in blocking solution. Signals were visualized on X-ray film with SuperSignal West Dura Extended Duration Substrate (Thermo Fisher Scientific) and quantified using ImageJ software (NIH).

[2] = system: retinas of adult mice; assay: Intravitreal injection in adult mice, qPCR and Western blot; assay type: in vivo, mouse
From the text: Conditional deletion of Nr2e3 in mature photoreceptors has not been reported; however, deletion of Nrl in mature photoreceptors leads to a partial “reprogramming” of the rods: the cells have reduced rod gene expression and an increase in the expression of some cone genes. Because PR1 reduces rod gene expression, including Nrl, in rods even at late stages in their development (P12), it was postulated that PR1 might have similar effects in the retinas of adult mice. To determine if PR1 affects adult photoreceptor gene expression in vivo, intravitreal injections in one eye of an adult mouse (>P21) were made and compared expression to the other eye.
as §1, §2
For intravitreal injections, adult mice (>P21) were anesthetized with isoflurane and injected with 1.5 μl of 10 mM PR1 using a 32-gauge Hamilton needle. Postnatal pups were injected intraperitoneally (IP) with 20 μl of 50 mM PR1 or 20 μl of DMSO at P2 or P3 with a 32-gauge Hamilton needle. Timed-pregnant dams were injected IP with 100 μl of 50 mM PR1 at E14 and E17 with a BD insulin syringe.

[3] = system: retina from Rho^P23H transgenic mice at P8; assay: P8 Rho^P23H retinal explants, rhodopsin Western blot; assay type: cell-based, mouse; settings: 2 μM, three days
From the text: The effect of PR1 on Rho expression in adult rods might have potential as a way to slow the degeneration of these cells in dominant forms of retinitis pigmentosa, like Rho^P23H. In this disease, the affected individuals express a mutant form of rhodopsin that is likely inappropriately processed and ultimately leads to the death of the rods. […] The majority of rod cell death in the Rho^P23H transgenic line occurs between P14 and P21. […] […] The number of nuclei were counted in the ONL of each retina in the central region 100 μm from the optic nerve head. […] Gnb1 expression was also monitored as another measure of rod photoreceptor preservation because this is not directly affected by PR1 and thus serves as a surrogate for rod number. […]
Retinal explants or retinas were homogenized in lysis buffer (50 mM Tris, 100 mM NaCl, 5 mM EDTA, 0.1% SDS, 1% Triton X-100, 2.5% glycerol, and 1× protease inhibitor cocktail) and equal amounts of protein samples were loaded and run in a 4-20% SDS gel (Bio-Rad). […] Signals were visualized on X-ray film with SuperSignal West Dura Extended Duration Substrate (Thermo Fisher Scientific) and quantified using ImageJ software (NIH).

[4] = system: Thrb (Trβ2); assay: Cone gene expression, Thrb (FIG. 5)
[5] = adult mice (>P21), two intravitreal injections over four days, vs other eye
[6] = adult retinas, intravitreal injection

Cc1cc(C)cc(NC(=O)CCc2nc3sc4c(c3c(=O)[nH]2)CCCC4)c1 [PR1, N-(3,5-dimethylphenyl)-3-(4-oxo-5,6,7,8-tetrahydro-3H-[1]benzothiolo[2,3-d]pyrimidin-2-yl)propanamide]
rhodopsin protein, Western blot ([1]; 5 DIV, vs DMSO): less rhodopsin protein
Crx expression ([1]; 2 days, qPCR, vs DMSO): did not significantly decrease
Gnat1 expression ([1]; 2 days, qPCR, vs DMSO): decreased
Gnb1 expression ([1]; 2 days, qPCR, vs DMSO): did not significantly decrease
Nr2e3 expression ([1]; 2 days, qPCR, vs DMSO): decreased
Nrl expression ([1]; 2 days, qPCR, vs DMSO): decreased
Otx2 expression ([1]; 2 days, qPCR, vs DMSO): did not significantly decrease
Rho expression ([1]; 2 days, qPCR, vs DMSO): decreased
rhodopsin immunoreactivity in sections ([1]; immunohistochemistry): almost complete absence of rhodopsin immunoreactivity
Thrb (cone gene) expression ([1]; qPCR, vs DMSO): increased
level of S opsin immunoreactivity in sectioned explants ([1]; vs DMSO): overall increase
Rho mRNA expression by qPCR [2, 5]: decreased
rhodopsin protein by Western blot [2, 5]: decreased
S opsin [2, 6]: not observed
expression of the cone photoreceptor marker TRβ2 [2, 6]: increased
rhodopsin expression in the mutant rods [3]: effectively reduced rhodopsin expression
cone gene expression, Thrb (Trβ2) [4]: increase

From patent US10849904B2, “Methods for treatment of retinal disease by photoreceptor gene expression modulation” (University of Washington, priority 2015, dated 2020)
